For eleven compounds, IC50, EC50 and Ki results are on record in patent US8614206B2 (Genentech, Inc., priority 2011, dated 2013).

The test system of one assay is BaF3 parental cells. The assay can be described thus: In vitro cell proliferation, BaF3 parental line + IL3 (CellTiter-Glo). In kind it is cell-based, murine. Particulars: Mus musculus, BaF3, BaF3 parental cells with IL-3, incubated overnight. Background: Cellular ATP, detected with luciferase, serves as a proxy for viable cell number.
Assay [1] has as its system MM1.S (multiple myeloma) cells. The assay can be described thus: In vitro cell proliferation, MM1.S multiple myeloma cells (CellTiter-Glo, ATP). Particulars: read-out: Prolif MM1S ATP (EC50). In kind it is cell-based. Here is the method:
BaF3, a murine interleukin-3 dependent pro-B cell line, parental cells, BaF3 PIM1 cells, BaF3 PIM2 cells, and MM1.S (multiple myeloma) cells were seeded at 2 k/well, 5 k/well, 5 k/well, and 10 k/well respectively, in a 384-well plate, at 45 μL/well. Test compound was added at 5 μL/well. BaF3 cells (parental and transfected) were incubated overnight, while MM1.S cells were incubated for 72 hours at 37° C., 5% CO2. […] IC50/EC50 values for the test compound were calculated.

The next assay deals with PIM1 (Homo sapiens (Human), UniProt P11309). Put plainly: Pim kinase inhibition, PIM1 LC3K (Example 901). It counts as biochemical.
Chain of PIM1 (P11309 whole entry): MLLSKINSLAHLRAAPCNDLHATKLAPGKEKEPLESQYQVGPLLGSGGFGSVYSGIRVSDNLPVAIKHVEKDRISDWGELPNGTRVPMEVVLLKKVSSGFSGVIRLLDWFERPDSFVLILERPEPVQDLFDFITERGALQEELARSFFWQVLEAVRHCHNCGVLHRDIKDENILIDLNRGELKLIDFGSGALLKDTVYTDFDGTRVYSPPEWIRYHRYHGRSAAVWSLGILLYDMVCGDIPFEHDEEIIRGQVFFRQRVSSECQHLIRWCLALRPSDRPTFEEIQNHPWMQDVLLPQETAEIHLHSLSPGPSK
The mark [2] stands for this setting: read-out: Prolif BaF3 + IL3 (IC50).
Where [3] appears, read: read-out: Prolif BaF3 IL3 (IC50).

Read-outs that look alike come from different tables or passages of the source. A value given as a limit tells only on which side of the number the result lay.

Source text for PIM1: Determination of the Pim kinase activity of a Formula I compound is possible by a number of direct and indirect detection methods.

As for `COC1CCN(c2c(NC(=O)c3nc(-c4ncccc4F)sc3N)cnn2C)CCC1N` (racemic) [Example 323, 5-amino-N-[5-(4-amino-5-methoxy-azepan-1-yl)-1-methyl-pyrazol-4-yl]-2-(3-fluoro-2-pyridyl)thiazole-4-carboxamide], the IC50 (commonly the concentration that inhibits the measured activity by half) with BaF3 parental cells (setting [2]) was above 25000 nM. Also, the EC50 – broadly, the concentration at which the effect is half-maximal – in assay [1] (Homo sapiens, MM1.S, 72 h) came to 165 nM.
In the same order, the values of `Cn1ncc(NC(=O)c2nc(-c3c(F)cccc3F)sc2N)c1N1CCCC(C)(N)CC1` (racemic) [Example 411, 5-amino-N-[5-(4-amino-4-methyl-azepan-1-yl)-1-methyl-pyrazol-4-yl]-2-(2,6-difluorophenyl)thiazole-4-carboxamide] are 17700 nM and 1800 nM.
Regarding `Cn1ncc(NC(=O)c2nc(-c3c(F)cccc3F)sc2N)c1N1CCC[C@H](N)[C@@H](F)C1` (single isomer, unassigned) [Example 158], in the assay on BaF3 parental cells (setting [3]), the IC50 is 11600 nM. Moreover, the EC50 in assay [1] (Homo sapiens, MM1.S, 72 h) amounted to 3000 nM.
Take `Cn1ncc(NC(=O)c2nc(-c3ccccc3F)sc2N)c1N1CC[C@@H](N)[C@H](F)CC1` (single isomer, unassigned) [Example 230]: in the assay with BaF3 parental cells (setting [3]), the IC50 turned out to be 18100 nM. The EC50 in assay [1] (Homo sapiens, MM1.S, 72 h) amounted to 1300 nM.
For `Cn1ncc(NC(=O)c2nc(-c3c(F)cccc3F)sc2N)c1N1CCC(N)C(O)CC1` (single isomer, unassigned) [Example 327, 5-amino-N-[5-(4-amino-5-hydroxy-azepan-1-yl)-1-methyl-pyrazol-4-yl]-2-(2,6-difluorophenyl)thiazole-4-carboxamide], the IC50 with BaF3 parental cells (setting [2]) is above 25000 nM. In addition, in assay [1] (72 hours), the EC50 was 14700 nM.
Take `Nc1sc(-c2c(F)cccc2F)nc1C(=O)Nc1cnn(CC(F)F)c1N1CCC(N)C(O)CC1` (single isomer, unassigned) [Example 398, 5-amino-N-[5-(4-amino-5-hydroxy-azepan-1-yl)-1-(2,2-difluoroethyl)pyrazol-4-yl]-2-(2,6-difluorophenyl)thiazole-4-carboxamide]: the Ki (as a rule, a measure of affinity in units of concentration, obtained from inhibition or displacement) at PIM1 is 0.142 nM. Further, the concentration for a half-maximal effect (EC50) in assay [1] (72 hours) was determined as 5700 nM.
`Nc1sc(-c2c(F)cccc2F)nc1C(=O)Nc1cnn(CC(F)F)c1N1CCC(N)C(O)CC1` (single isomer, unassigned) [Example 399, 5-amino-N-[5-(4-amino-5-hydroxy-azepan-1-yl)-1-(2,2-difluoroethyl)pyrazol-4-yl]-2-(2,6-difluorophenyl)thiazole-4-carboxamide]: on PIM1, affinity was put at a Ki of 0.018 nM. Also, in assay [1] (72 hours), the EC50 worked out at 41.9 nM.
Regarding `CO[C@H]1CCN(c2c(NC(=O)c3nc(-c4c(F)cccc4F)sc3N)cnn2C2CC2)CC[C@@H]1N` [Example 365, 5-amino-N-(5-((4S,5S)-4-amino-5-methoxyazepan-1-yl)-1-cyclopropyl-1H-pyrazol-4-yl)-2-(2,6-difluorophenyl)thiazole-4-carboxamide], on PIM1, the affinity corresponds to a Ki of 0.219 nM. Moreover, in assay [1] (Homo sapiens, MM1.S, 72 h), the EC50 amounted to 606 nM.
Turning to `Nc1sc(-c2c(F)cccc2F)nc1C(=O)Nc1cnn(CC(F)F)c1N1CC[C@@H](O)[C@@H](N)CC1` [Example 375, 5-amino-N-(5-((4S,5R)-4-amino-5-hydroxyazepan-1-yl)-1-(2,2-difluoroethyl)-1H-pyrazol-4-yl)-2-(2,6-difluorophenyl)thiazole-4-carboxamide], the inhibition constant Ki at PIM1 amounted to 0.051 nM. In addition, the EC50 in assay [1] (Homo sapiens, MM1.S, 72 h) turned out to be 70.6 nM.
In the same order, the values of `Cn1ncc(NC(=O)c2nc(-c3ncccc3F)sc2N)c1N1CC[C@@H](F)[C@@H](N)CC1` [Example 388, 5-amino-N-(5-((4S,5R)-4-amino-5-fluoroazepan-1-yl)-1-methyl-1H-pyrazol-4-yl)-2-(3-fluoropyridin-2-yl)thiazole-4-carboxamide] are 0.462 nM and 396 nM.
On PIM1, `CCn1ncc(NC(=O)c2nc(-c3ccccc3F)sc2N)c1N1CCC(N)C(OC)CC1` (stereo not shown) [Example 392, 5-amino-N-[5-(4-amino-5-methoxy-azepan-1-yl)-1-ethyl-pyrazol-4-yl]-2-(2-fluorophenyl)thiazole-4-carboxamide] showed a Ki of 0.668 nM. Moreover, in assay [1] (Homo sapiens, MM1.S, 72 h), the EC50 came out at 202 nM.
